{
  "source": "patent US9113629B2",
  "about": "“4-amino-6-(4-substituted-phenyl)-picolinates and 6-amino-2-(4-substituted-phenyl)-pyrimidine-4-carboxylates and their use as herbicides” (DOW AGROSCIENCES LLC, priority 2013, dated 2015)",
  "key": {"[1]": {"tested_on": "Key Broadleaf Weed and Crop Species", "test": "Post-emergent Test II herbicidal activity (Table 5)", "assay_type": "in vivo", "details": "post-emergence, 336 h, post-emergent, 14 days after application; for pest or weed control at 70 g/ha: 70 g ai/ha; for pest or weed control at 140 g/ha: 140 g ai/ha", "summary_of_the_method": "(§1)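 Greenhouse-grown plants at first or second true leaf stage were sprayed post-emergence with compound in acetone/DMSO-based aqueous spray containing crop oil concentrate and surfactant, at 187 L/ha, highest rate plus ½× to 1/16× dilutions. After 14 d, injury was scored visually versus untreated plants, 0 (none) to 100% (complete kill).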"}, "[2]": {"tested_on": "Key Grass and Sedge Weeds as well as Grass Crops", "test": "Post-emergent Test II herbicidal activity (Table 6)", "assay_type": "in vivo", "details": "post-emergence, 336 h; for pest or weed control at 70 g/ha: application rate 70 g ai/ha; for pest or weed control at 140 g/ha: application rate 140 g ai/ha", "summary_of_the_method": "as §1"}, "[3]": {"details": "ABUTH: velvetleaf (Abutilon theophrasti), read-out: Visual Growth Reduction (%) 14 Days After Application ABUTH"}, "[4]": {"details": "AMARE: redroot pigweed (Amaranthus retroflexus), read-out: Visual Growth Reduction (%) 14 Days After Application AMARE"}, "[5]": {"details": "BRSNN: oilseed-rape, canola (Brassica napus), read-out: Visual Growth Reduction (%) 14 Days After Application BRSNN"}, "[6]": {"details": "CHEAL: lambsquarters (Chenopodium album), read-out: Visual Growth Reduction (%) 14 Days After Application CHEAL"}, "[7]": {"details": "EPHHL: wild poinsettia (Euphorbia heterophylla), read-out: Visual Growth Reduction (%) 14 Days After Application EPHHL"}, "[8]": {"details": "HELAN: sunflower (Helianthus annuus), read-out: Visual Growth Reduction (%) 14 Days After Application HELAN"}, "[9]": {"details": "VIOTR: wild pansy (Viola tricolor), read-out: Visual Growth Reduction (%) 14 Days After Application VIOTR"}, "[10]": {"details": "CYPES: yellow nutsedge (Cyperus esculentus), read-out: Visual Growth Reduction (%) 14 Days After Application, CYPES"}, "[11]": {"details": "DIGSA: crabgrass (Digitaria sanguinalis), read-out: Visual Growth Reduction (%) 14 Days After Application, DIGSA"}, "[12]": {"details": "ECHCG: barnyardgrass (Echinochloa crus-galli), read-out: Visual Growth Reduction (%) 14 Days After Application, ECHCG"}, "[13]": {"details": "ORYSA: rice (Oryza sativa), read-out: Visual Growth Reduction (%) 14 Days After Application, ORYSA"}, "[14]": {"details": "SETFA: giant foxtail (Setaria faberi), read-out: Visual Growth Reduction (%) 14 Days After Application, SETFA"}, "[15]": {"details": "SORVU: grain sorghum (Sorghum vulgare), read-out: Visual Growth Reduction (%) 14 Days After Application, SORVU"}, "[16]": {"details": "TRZSS (wheat, Triticum aestivum), read-out: Visual Growth Reduction (%) 14 Days After Application, TRZSS"}, "[17]": {"details": "ZEAMX: maize, corn (Zea mays), read-out: Visual Growth Reduction (%) 14 Days After Application, ZEAMX"}},
  "note": "Like-named read-outs stand apart in the source and are kept apart here.",
  "data": [
    {"smiles": "C=Cc1c(N)nc(-c2ccc(C#N)cc2F)nc1C(=O)O", "note": "[Compound 5, 6-Amino-2-(4-cyano-2-fluorophenyl)-5-vinylpyrimidine-4-carboxylic acid]", "values": [
      {"measurement": "pest or weed control at 70 g/ha", "setting": "[1]; [3]", "result": "0 to 29", "unit": "%"},
      {"measurement": "pest or weed control at 140 g/ha", "setting": "[1]; [3]", "result": "0 to 29", "unit": "%"},
      {"measurement": "pest or weed control at 70 g/ha", "setting": "[1]; [4]", "result": "0 to 29", "unit": "%"},
      {"measurement": "pest or weed control at 140 g/ha", "setting": "[1]; [4]", "result": "0 to 29", "unit": "%"},
      {"measurement": "pest or weed control at 70 g/ha", "setting": "[1]; [5]", "result": "0 to 29", "unit": "%"},
      {"measurement": "pest or weed control at 140 g/ha", "setting": "[1]; [5]", "result": "0 to 29", "unit": "%"},
      {"measurement": "pest or weed control at 70 g/ha", "setting": "[1]; [6]", "result": "0 to 29", "unit": "%"},
      {"measurement": "pest or weed control at 140 g/ha", "setting": "[1]; [6]", "result": "0 to 29", "unit": "%"},
      {"measurement": "pest or weed control at 70 g/ha", "setting": "[1]; [7]", "result": "0 to 29", "unit": "%"},
      {"measurement": "pest or weed control at 140 g/ha", "setting": "[1]; [7]", "result": "0 to 29", "unit": "%"},
      {"measurement": "pest or weed control at 70 g/ha", "setting": "[1]; [8]", "result": "85 to 94", "unit": "%"},
      {"measurement": "pest or weed control at 140 g/ha", "setting": "[1]; [8]", "result": "85 to 94", "unit": "%"},
      {"measurement": "pest or weed control at 70 g/ha", "setting": "[1]; [9]", "result": "0 to 29", "unit": "%"},
      {"measurement": "pest or weed control at 140 g/ha", "setting": "[1]; [9]", "result": "0 to 29", "unit": "%"},
      {"measurement": "pest or weed control at 70 g/ha", "setting": "[2]; [10]", "result": "0 to 29", "unit": "%"},
      {"measurement": "pest or weed control at 140 g/ha", "setting": "[2]; [10]", "result": "0 to 29", "unit": "%"},
      {"measurement": "pest or weed control at 70 g/ha", "setting": "[2]; [11]", "result": "0 to 29", "unit": "%"},
      {"measurement": "pest or weed control at 140 g/ha", "setting": "[2]; [11]", "result": "0 to 29", "unit": "%"},
      {"measurement": "pest or weed control at 70 g/ha", "setting": "[2]; [12]", "result": "0 to 29", "unit": "%"},
      {"measurement": "pest or weed control at 140 g/ha", "setting": "[2]; [12]", "result": "0 to 29", "unit": "%"},
      {"measurement": "pest or weed control at 70 g/ha", "setting": "[2]; [13]", "result": "0 to 29", "unit": "%"},
      {"measurement": "pest or weed control at 140 g/ha", "setting": "[2]; [13]", "result": "0 to 29", "unit": "%"},
      {"measurement": "pest or weed control at 70 g/ha", "setting": "[2]; [14]", "result": "0 to 29", "unit": "%"},
      {"measurement": "pest or weed control at 140 g/ha", "setting": "[2]; [14]", "result": "0 to 29", "unit": "%"},
      {"measurement": "pest or weed control at 70 g/ha", "setting": "[2]; [15]", "result": "0 to 29", "unit": "%"},
      {"measurement": "pest or weed control at 140 g/ha", "setting": "[2]; [15]", "result": "0 to 29", "unit": "%"},
      {"measurement": "pest or weed control at 70 g/ha", "setting": "[2]; [16]", "result": "0 to 29", "unit": "%"},
      {"measurement": "pest or weed control at 140 g/ha", "setting": "[2]; [16]", "result": "0 to 29", "unit": "%"},
      {"measurement": "pest or weed control at 70 g/ha", "setting": "[2]; [17]", "result": "0 to 29", "unit": "%"},
      {"measurement": "pest or weed control at 140 g/ha", "setting": "[2]; [17]", "result": "0 to 29", "unit": "%"},
      {"measurement": "melting point", "result": "164 to 168", "unit": "°C"}
    ]}
  ]
}
